Data as given in patent US11987589B2, “Heterocyclic flavone derivatives, compositions, and methods related thereto” (Emory University, priority 2018, dated 2024).
Entries after “also recorded” stand apart in the source; their conditions may differ. Like-named read-outs stand apart in the source and are kept apart here.

Tests used:
[1] = human, hepatocytes
[2] = mouse, hepatocytes
BBB-PAMPA Permeability = format: in vitro ADME
[3] = In vitro plasma, hepatocyte and liver microsomal stability assays (summary statement); format: in vitro ADME
T48 cells = experiment: Protection from staurosporine (STS)-induced apoptosis, MTT assay, T48 cells; format: cell-based
Protocol: Cytoprotective effects were tested. To examine whether these compounds protect cells from staurosporine (STS)-induced apoptosis, MTT assays were conducted using TrkB stable transfected cells or TrkB deficient SN56 cells.

Aβ = Aβ deposition in 5×FAD mice (immunohistochemistry, thioflavin-S, ELISA); format: in vivo, mouse
Protocol: The deposition of Aβ was tested by immunohistochemistry with anti-AP antibody.

in vivo [4] = conditions: ICR, mouse, po, 5 mg/kg
Protocol: The compounds were orally administered into wild-type mice or 3×Tg, an Alzheimer's disease (AD) mouse model. […] Pharmacokinetic analysis was performed using non-compartmental methods.

[5] = Microsomal Intrinsic Clearance (mouse); conditions: liver microsomes; for microsomal CLint: Mouse microsomes
[6] = Hepatocyte Stability (human); conditions: hepatocytes
TrkB [7] = biological target: T1, TrkB (Mus musculus, UniProt P15209); experiment: TrkB activation in brain of 5×FAD mice after chronic oral administration; format: in vivo
T1 construct: from tissue; host or cells: brain (hippocampus) of 5xFAD mice
T1 sequence (P15209 32-821): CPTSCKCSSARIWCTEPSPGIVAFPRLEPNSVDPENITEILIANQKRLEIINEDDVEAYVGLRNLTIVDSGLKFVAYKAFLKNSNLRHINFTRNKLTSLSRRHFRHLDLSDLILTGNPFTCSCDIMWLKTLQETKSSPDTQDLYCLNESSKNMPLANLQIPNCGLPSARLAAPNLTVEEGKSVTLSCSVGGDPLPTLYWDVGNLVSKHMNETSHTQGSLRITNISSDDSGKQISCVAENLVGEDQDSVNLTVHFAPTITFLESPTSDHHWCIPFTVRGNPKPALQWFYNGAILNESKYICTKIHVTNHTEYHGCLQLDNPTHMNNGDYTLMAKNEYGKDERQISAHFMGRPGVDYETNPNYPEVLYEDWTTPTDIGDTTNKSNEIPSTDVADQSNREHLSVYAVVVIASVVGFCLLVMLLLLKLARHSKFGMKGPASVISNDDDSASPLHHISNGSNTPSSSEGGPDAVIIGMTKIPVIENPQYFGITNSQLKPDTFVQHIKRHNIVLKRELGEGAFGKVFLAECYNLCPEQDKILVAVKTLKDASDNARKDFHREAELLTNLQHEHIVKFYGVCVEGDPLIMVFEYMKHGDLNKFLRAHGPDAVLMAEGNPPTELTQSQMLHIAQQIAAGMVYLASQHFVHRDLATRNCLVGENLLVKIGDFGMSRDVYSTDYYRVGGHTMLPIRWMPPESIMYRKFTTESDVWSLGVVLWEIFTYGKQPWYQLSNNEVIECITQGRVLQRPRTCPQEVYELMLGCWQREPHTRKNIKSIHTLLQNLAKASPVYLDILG
Description: After 3 months of drug treatment, TrkB activation was monitored in the mouse brain by immunofluorescence with anti-phosphorylated TrkB (p-TrkB) antibody.

Water solubility = format: physicochemical
IL-6 = experiment: Inflammatory factor IL-6 in 5×FAD mouse brains; format: in vivo
TrkB [8] = experiment: Endogenous TrkB activation in DIV13 primary cortical cultures, immunoblotting; format: cell-based; conditions: 15 min
Protocol: Endogenous TrkB activation in primary neurons were tested in DIV13 primary cortical cultures. The neurons were treated with the two compounds with doses for 15 min. The lysates were analyzed by immunoblotting with antibodies.

in vivo [9] = conditions: mouse; for B/P Ratio, individual animal / Plasma concentration, Mean / Kp at 1 h / Kp at 2 h / Kp at 4 h: male; for Kp at 1 h / Kp at 2 h / Kp at 4 h: B/P Ratio
Protocol: The concentration ratio of brain/plasma was calculated, and PK analysis was performed using a non-compartmental method.

[10] = system: Delta-secretase (AEP, asparagine endopeptidase); experiment: AEP activation and APP and Tau proteolytic cleavage in 5×FAD mice; format: in vivo, mouse
Protocol: The processing of APP and Tau by AEP was evaluated by western blot.
Delta-secretase (AEP, asparagine endopeptidase) cleaves both APP and Tau, mediating AD pathogenesis. […] To further investigate APP proteolytic cleavage activity by AEP, immunofluorescent co-staining was conducted on 5×FAD brain section with anti-APP C585 and AEP antibodies.

[11] = Hepatocyte Stability (mouse); conditions: hepatocytes
Plasma Stability (human) = format: in vitro ADME
5×FAD mice [12] = experiment: Synaptic loss and plasticity in 5×FAD mice (Golgi staining, electron microscopy, immunoblotting, LTP); format: in vivo, mouse
Protocol: The dendritic spines from apical dendritic layer of the CA1 region were analyzed by Golgi staining. (Scale bar, […]). On top is quantitative analysis of the spine density.
Synaptic loss is believed to be the basis of cognitive impairment in the early phase of Alzheimer's disease. […] The density of dendritic spines along individual dendrites of pyramidal neurons were assessed by Golgi staining. […] Since one dendritic spine can form more than one synapse, the densities of synapse in the CA1 area were quantified in 5×FAD mice brain by electron microscopy. […] Immunoblotting was done using pre-synaptic markers (synaptotagmin) and post-synaptic markers (GluR1, PSD95 and spinophilin).

TrkB [13] = biological target: T2, TrkB (Rattus norvegicus, UniProt Q63604); experiment: TrkB activation in rat TrkB stably transfected SN56 cells (T48), immunoblotting; format: cell-based
T2 construct: expressed in transfected cells
T2 sequence (Q63604 32-821): as the sequence (P15209 32-821) above, with T3M, S9T, A10T, V32I, R63K, S84G, M153T, L185I, S394T, S770N counted along it

Plasma Stability (mouse) = format: in vitro ADME
5×FAD mice [14] = experiment: Morris water maze test in 5×FAD mice; format: in vivo, mouse
Protocol: The hippocampus-dependent spatial memory of 5×FAD mice was tested by Morris water maze test. The average latency and swim path length for each of the 5 acquisition days were calculated and plotted. […] The memory recall for the platform location was assessed in the probe trail when the platform was removed, and the mice were allowed to search for 60 s.

[15] = Microsomal Intrinsic Clearance (human); conditions: liver microsomes; for microsomal CLint: Human microsomes
[16] = NADPH-dependent CLint, with NADPH
[17] = NADPH-dependent T1/2, Mouse microsomes, with NADPH
[18] = NADPH-free T1/2, Mouse microsomes, NADPH-free
[19] = ICR, iv, 2 mg/kg, individual animal
[20] = NADPH-dependent T1/2, Human microsomes, with NADPH
[21] = NADPH-free T1/2, Human microsomes, NADPH-free

O=c1ccc2ccc(O)cc2o1 [7-OH-Coumarin]
Avg % Remaining at Last Point [1]: 7.17% | Clearance [1]: 88.5 μl/min/million cells | Half Life [1]: 15.7 min | Avg % Remaining at Last Point [2]: 38.8% | Clearance [2]: 63.2 μl/min/million cells | Half Life [2]: 21.9 min

CC(C)NCC(O)COc1ccc(CC(N)=O)cc1 (stereo not shown) [Atenolol, reference compound]
recovery at 10 μM (BBB-PAMPA Permeability; Test Conc. 10 μM): 84.6%

N#Cc1ccc(-c2cc(=O)c3ccc4[nH]c(C(F)(F)F)nc4c3o2)cc1 [CF3-CN, 4-(6-oxo-2-(trifluoromethyl)-3,6-dihydrochromeno[7,8-d]imidazol-8-yl)benzonitrile]
stability (comparison) [3]: more stable than RM-CN | EC50 (T48 cells): 26.7 nM | number of plaques and plaque area fraction (Aβ; cortex and hippocampus, vs vehicle control): significantly decreased | Aβ42 concentrations (ELISA) (Aβ; differences not statistically significant): reduction trend | Aβ deposition (immunohistochemistry) (Aβ; oral, vs vehicle group): significantly lower; also recorded: decreases Aβ plaque deposition | AUC (in vivo [4]): 68500 ng·h/mL | microsomal CLint [5, 16]: < 12.8 µL/min/mg | half-life [5, 17]: > 180 min | microsomal CLint ([5]; NADPH-free CLint, NADPH-free): < 12.8 µL/min/mg | half-life [5, 18]: > 180 min | Avg % Remaining at Last Point [6]: 97.2% | half-life [6]: > 480 min | hepatocyte CLint [6]: < 2.9 µL/min/1e6 cells | TrkB activation in the hippocampus (TrkB [7]; oral 3 mg/kg, anti-p-TrkB Y816 immunofluorescence): provoked TrkB activation in the hippocampus | total TrkB level in mouse brain (TrkB [7]; oral, 3 months of treatment): not total TrkB level were notably elevated | TrkB activation (p-TrkB signals) in mouse brain (TrkB [7]; oral, 3 months of treatment, vs vehicle): markedly activated | phosphorylation of TrkB receptors and downstream AKT and ERK/MAPK pathways (TrkB [7]; oral, 3 months, vs vehicle control): more prominently phosphorylated | water solubility (comparison) (Water solubility): more water soluble than RM-CN | inflammatory factors IL-6 (IL-6): repressed | TrkB activation in primary neurons (TrkB [8]): dose-dependent effect in triggering TrkB activation | Cmax (in vivo [9]; ICR, iv, 2 mg/kg): 12700 ng/mL | Tmax (in vivo [9]; ICR, iv, 2 mg/kg): 4.8 min | B/P Ratio, individual animal (in vivo [9]; ICR, iv, 2 mg/kg, 1 h): 0.01 | Plasma concentration, Mean (in vivo [9]; ICR, iv, 2 mg/kg, 1 h): 5288.5 ng/mL | B/P Ratio, individual animal (in vivo [9]; ICR, iv, 2 mg/kg, 2 h): 0.01 | Plasma concentration, Mean (in vivo [9]; ICR, iv, 2 mg/kg, 2 h): 2154.5 ng/mL | Plasma concentration, Mean (in vivo [9]; ICR, iv, 2 mg/kg, 4 h): 544.8 ng/mL | Kp at 1 h (in vivo [9]; ICR, iv, 2 mg/kg, Mean): 0.01 | Kp at 2 h (in vivo [9]; ICR, iv, 2 mg/kg, Mean): 0.01 | Kp at 4 h (in vivo [9]; ICR, iv, 2 mg/kg, Mean): 0.02 | Kp at 1 h (in vivo [9]; [19]): 0.02 | Kp at 2 h (in vivo [9]; [19]): 0.01 | Kp at 4 h (in vivo [9]; [19]): 0.02 | passage of the blood-brain barrier (in vivo [9]): can pass the blood-brain barrier | Tau N368 staining ([10]; 5×FAD brain section): repressed | APP C585 immuno-signals ([10]; 5×FAD brain section, immunofluorescent co-staining): strongly inhibited | AEP activity (enzymatic assay) ([10]; 5×FAD mice, 3 mg/kg): blocked | AEP expression in Hippocampus ([10]; 5×FAD mice, immunofluorescence): progressively attenuated | Mature and active AEP (immunoblotting) ([10]; 5×FAD mouse brains): decreased; also recorded: significantly inhibited AEP activation | AEP-cleaved APP N373, N585 and Tau N368 truncates ([10]; 5×FAD mouse brains, western blot): reduction; also recorded: attenuated Tau and APP cleavage | Avg % Remaining at Last Point [11]: 94.8% | half-life [11]: > 480 min | hepatocyte CLint [11]: < 2.9 µL/min/1e6 cells | Avg % Remaining at Last Point (Plasma Stability (human)): 94.2% | half-life (Plasma Stability (human)): > 480 min | Pe (BBB-PAMPA Permeability; Test Conc. 10 μM): 3.09 | recovery at 10 μM (BBB-PAMPA Permeability; Test Conc. 10 μM): 89.9% | LTP (long-term potentiation) (5×FAD mice [12]; fEPSPs induced by 3×TBS, vs vehicle): increased LTP; also recorded: reversed the LTP impairment | synaptic markers (synaptotagmin, GluR1, PSD95, spinophilin), immunoblotting (5×FAD mice [12]; repeated oral administration): reversed the reduction of synaptic markers | synaptic density (electron microscopy) (5×FAD mice [12]; repeated oral administration, CA1 area): remarkably reversed the loss of synaptic density in a dose-dependent way | density of dendritic spines (Golgi staining) (5×FAD mice [12]; repeated oral administration, CA1 region): noticeably rescued; also recorded: prevents or reverses the synaptic loss | EC50 (TrkB [13]; treated 15 min, immunoblotting, read-out: EC50 of p-TrkB 706 and 816 activation): 21.6 nM | Avg % Remaining at Last Point (Plasma Stability (mouse)): 107% | half-life (Plasma Stability (mouse)): > 480 min | learning impairment, area under curve (AUC) of latency (5×FAD mice [14]; Morris water maze, 5 acquisition days): attenuated; also recorded: improves the spatial learning and memory | AUC of the swim path distance (5×FAD mice [14]; Morris water maze, no significant statistic differences): reduction trend | percentage of time spent in target quadrant (5×FAD mice [14]; probe trial, 60 s): significantly higher percentage of time in the target quadrant | microsomal CLint [15, 16]: < 12.8 µL/min/mg | half-life [15, 20]: > 180 min | microsomal CLint ([15]; NADPH-free CLint, NADPH-free): < 12.8 µL/min/mg | half-life [15, 21]: > 180 min

Cc1ncc2n1-c1ccc(Cl)cc1C(c1ccccc1F)=NC2 [Midazolam, reference compound]
microsomal CLint [5, 16]: 1100 µL/min/mg | half-life [5, 17]: 2.1 min | microsomal CLint ([5]; NADPH-free CLint, NADPH-free): < 12.8 µL/min/mg | half-life [5, 18]: > 180 min | Avg % Remaining at Last Point [6]: 9.82% | half-life [6]: 35.7 min | hepatocyte CLint [6]: 38.8 µL/min/1e6 cells | Avg % Remaining at Last Point [11]: 34.0% | half-life [11]: 39.4 min | hepatocyte CLint [11]: 35.1 µL/min/1e6 cells | microsomal CLint [15, 16]: 511 µL/min/mg | half-life [15, 20]: 4.52 min | microsomal CLint ([15]; NADPH-free CLint, NADPH-free): < 12.8 µL/min/mg | half-life [15, 21]: > 180 min

CC(C)[N+](C)(CCOC(=O)C1c2ccccc2Oc2ccccc21)C(C)C [Propantheline, reference compound]
Avg % Remaining at Last Point (Plasma Stability (human)): 3.15% | half-life (Plasma Stability (human)): 23.9 min | half-life (Plasma Stability (mouse)): 22.2 min

Cn1c(=O)[nH]c2ccc3c(=O)cc(-c4ccc(C#N)cc4)oc3c21 [RM-CN, 4-(1-methyl-2,6-dioxo-1,2,3,6-tetrahydrochromeno[7,8-d]imidazol-8-yl)benzonitrile]
EC50 (T48 cells): 12.5 nM | microsomal CLint [5, 16]: 231 µL/min/mg | half-life [5, 17]: 10 min | microsomal CLint ([5]; NADPH-free CLint, NADPH-free): < 12.8 µL/min/mg | half-life [5, 18]: > 180 min | Avg % Remaining at Last Point [6]: 54.8% | half-life [6]: 133 min | hepatocyte CLint [6]: 10.5 µL/min/1e6 cells | TrkB activation in primary neurons (TrkB [8]): dose-dependent effect in triggering TrkB activation | Avg % Remaining at Last Point [11]: 67.1% | half-life [11]: 275 min | hepatocyte CLint [11]: 5.04 µL/min/1e6 cells | Avg % Remaining at Last Point (Plasma Stability (human)): 91.1% | half-life (Plasma Stability (human)): > 480 min | Pe (BBB-PAMPA Permeability; Test Conc. 1 μM): 2.82 | recovery at 1 μM (BBB-PAMPA Permeability; Test Conc. 1 μM): 71% | effects on p-TrkB 816 (TrkB [13]; different doses, 15 min): behaved inversely | p-Akt/p-MAPK downstream signals (TrkB [13]; different doses, 15 min): increased in a dose-dependent manner | p-TrkB 706 activation (TrkB [13]; different doses, 15 min): activated p-TrkB 706 gradually | Avg % Remaining at Last Point (Plasma Stability (mouse)): 80.3% | half-life (Plasma Stability (mouse)): 345 min | microsomal CLint [15, 16]: 30.3 µL/min/mg | half-life [15, 20]: 76.2 min | microsomal CLint ([15]; NADPH-free CLint, NADPH-free): < 12.8 µL/min/mg | half-life [15, 21]: > 180 min

CC(=O)CC(c1ccccc1)c1c(O)c2ccccc2oc1=O (stereo not shown) [Warfarin, reference compound]
Avg % Remaining at Last Point (Plasma Stability (human)): 93.6% | Avg % Remaining at Last Point (Plasma Stability (mouse)): 80.8%
